Results from US20240181125A1, “COMPOSITIONS AND METHODS FOR SCARLESS WOUND HEALING IN DIABETES” (Washington University, priority 2022, published 2024).
Bridge positions count the residues as written; N and C are the ends. Peptide text beside a SMILES is read from it. * marks the point of attachment. FITC = O=C1OC2(c3ccc(O)cc3Oc3cc(O)ccc32)c2ccc(NC(=S)*)cc21

Assays:
HAECs = test: Cell proliferation (dsDNA) under high glucose and TGFβ1, HAEC; assay type: cell-based, human; settings: high glucose, TGFβ1 10 ng/ml, PTβR2I 10 μg/mL; p<0.05
Method: HDFs, HaCaTs, and HAECs were seeded in 96-well plates at respective densities of 1.5×10^4 cells/mL, 2×10^4 cells/mL, and 2×10^4 cells/mL. High glucose (4.5 g/L) basal medium with 1% P/S was used for the culture. After 24 hours, TGFβ1 (10 ng/ml) or TGFβ1 (10 ng/ml)/PTβR2I (10 μg/mL) was added to the medium. The culture continued for three days. The medium was then replaced by papain solution and incubated at 60° C. for 24 hours. The dsDNA content was tested using a Quant-iT™ PicoGreen dsDNA Assay Kit (Invitrogen).

TGFβ1/p-Smad2/3 pathway = test: Immunoblotting/IF of p-Smad2/3 and α-SMA in HDFs; assay type: cell-based, human
Method: For in vitro tests, protein lysates were collected from HDFs. Pre-cooled cell scrapers were used to detach the cells, and the cells were re-suspended in RIPA lysis buffer with the inhibitor cocktail. For in vivo tests, wound skin tissues were washed three times with pre-cooled DPBS, dissected into small pieces, and re-suspended in RIPA lysis buffer containing protease and phosphatase inhibitors. Homogenization was then performed thereafter with an ultrasonic processor (Cole Parmer). After centrifugation at 12,000 g for 20 min, the supernatants were collected, and protein concentrations were measured using a Bradford protein assay kit (Bio-rad).
The protein samples were separated by 10% Mini-PROTEAN TGX stain-free precast gels (Bio-rad) and transferred onto an immune-blot PVDF membrane. The blots were washed three times with DPBS containing 0.1% Tween 20 (PBST), blocked with 5% milk powder in PBST buffer for 40 min, and incubated with primary antibodies at specific dilutions overnight at 4° C. The primary antibodies included rabbit GAPDH antibody (1:5000, Cell signaling), rabbit anti-a-smooth muscle actin (α-SMA) antibody (1:2000, Cell signaling), rabbit anti-phospho-Smad2(Ser465/467)/Smad3 (Ser423/425) (1:500, Cell signaling), and rabbit anti-phospho-p38 (1:500, Cell signaling). The membranes were washed three times with PBST and incubated with horseradish peroxidase (HRP)-conjugated secondary antibodies (1:2500). Immunoblots were then washed with PBST and detected with a WesternBright HRP substrate detection kit (Advansta). The ChemiDoc XPS+system (Bio-rad) was used to image the blots.

In the case of `CC(C)C[C@@H]1NC(=O)CNC(=O)[C@@H](NC(=O)[C@@H](N)CCC(=O)O)CSSC[C@@H](C(=O)N[C@@H](CCCCNC(=S)Nc2ccc3c(c2)C(=O)OC32c3ccc(O)cc3Oc3cc(O)ccc32)C(=O)O)NC(=O)[C@H](CC(C)C)NC(=O)[C@H](CCCNC(=N)N)NC(=O)[C@H](Cc2c[nH]c3ccccc23)NC(=O)[C@H](C(C)C)NC(=O)[C@H](CCCNC(=N)N)NC(=O)[C@H](CC(=O)O)NC(=O)[C@@H]2CCCN2C(=O)[C@H](CCCNC(=N)N)NC(=O)CNC(=O)[C@H](C(C)C)NC(=O)[C@@H]2CCCN2C(=O)[C@H](CC(C)C)NC1=O` [PTβR2I, ECGLLPVGRPDRVWRLCK-FITC] (H-ECGLLPVGRPDRVWRLCK(FITC)-OH; disulfide 2-17; N-terminus and C-terminus assumed), the “proliferation (dsDNA, day 3)” value (HAECs) is reported as “Significantly improved proliferation”, the “phosphorylation of Smad2/3, PTβR2I with TGFβ1 vs TGFβ1 alone” value (TGFβ1/p-Smad2/3 pathway; high glucose) is reported as “no substantial difference” and the “α-SMA+ myofibroblast formation in presence of TGFβ1” value (TGFβ1/p-Smad2/3 pathway; high glucose) is reported as “regardless of the addition of PTβR2I”. For the same compound, the “expression of downstream marker α-SMA” value (TGFβ1/p-Smad2/3 pathway; high glucose, TGFβ1) was “did not alter” and the TGFβ1/p-Smad2/3 pathway (TGFβ1/p-Smad2/3 pathway; normal glucose) was “apparently inhibited”.
